Measurements: patent US6545014B2, “Method of treating glaucoma” (Texas Biotechnology Corporation, priority 1991, dated 2003)
Like-named read-outs stand apart in the source and are kept apart here.

Experiments:
[1] = biological target: T1, human ETA receptors (Homo sapiens, UniProt P25101); test: Binding Test #1: inhibition of 125I-endothelin-1 binding to ETA receptors (TE 671 cell membranes); conditions: incubation at 24° C.; generally the average of 2 to 3 experiments
T1 construct: host or cells: TE 671 cells (membranes)
T1 sequence (P25101 21-427): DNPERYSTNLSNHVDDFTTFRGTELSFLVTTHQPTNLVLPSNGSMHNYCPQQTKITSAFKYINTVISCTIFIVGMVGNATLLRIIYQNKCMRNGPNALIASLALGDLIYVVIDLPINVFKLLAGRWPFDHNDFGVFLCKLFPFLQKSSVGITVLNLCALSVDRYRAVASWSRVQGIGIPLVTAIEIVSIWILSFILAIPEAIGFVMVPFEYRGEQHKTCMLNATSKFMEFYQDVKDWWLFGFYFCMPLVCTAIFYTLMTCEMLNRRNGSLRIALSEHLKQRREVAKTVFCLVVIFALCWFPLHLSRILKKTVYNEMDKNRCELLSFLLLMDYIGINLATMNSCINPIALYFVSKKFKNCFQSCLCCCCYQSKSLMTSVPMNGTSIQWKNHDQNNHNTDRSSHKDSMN
Description: (§1) Compounds that are potential endothelin antagonists are identified by testing their ability to compete with ^125I-labeled ET-1 for binding to human ETA receptors or ETB receptors present on isolated cell membranes. The effectiveness of the test compound as an antagonist or agonist of the biological tissue response of endothelin can also be assessed by measuring the effect on endothelin induced contraction of isolated rat thoracic aortic rings. The ability of the compounds to act as antagonists or agonists for ETB receptors can be assess by testing the ability of the compounds are to inhibit endothelin-1 induced prostacyclin release from cultured bovine aortic endothelial cells.
TE 671 cells (ATCC Accession No. HTB 139) express ETA receptors. These cells were grown to confluence in T-175 flasks. Cells from multiple flasks were collected by scraping, pooled and centrifuged for 10 min at 190×g. The cells were resuspended in phosphate buffered saline (PBS) containing 10 mM EDTA using a Tenbroeck homogenizer. The suspension was centrifuged at 4° C. at 57,800×g for 15 min, the pellet was resuspended in 5 ml of buffer A (5 mM HEPES buffer, pH 7.4 containing aprotinin (100 KIU/ml)) and then frozen and thawed once. 5 ml of Buffer B (5 mM HEPES Buffer, pH 7.4 containing 10 mM MnCl2 and 0.001 % deoxyribonuclease Type 1) was added, the suspension mixed by inversion and then incubated at 37° C. for 30 minutes. The mixture was centrifuged at 57,800×g as described above, the pellet washed twice with buffer A and then resuspended in buffer C (30 mM HEPES buffer, pH 7.4 containing aprotinin (100 KIU/ml) to give a final protein concentration of 2 mg/ml and stored at −70° C. until use.
The membrane suspension was diluted with binding buffer (30 mM HEPES buffer, pH 7.4 containing 150 mM NaCl, 5 mM MgCl2, 0.5% Bacitracin) to a concentration of 8 μg/50, μl. ^125I-endothelin-1 (3,000 cpm, […]) was added to 50 μl of either: (A) endothelin-1 (for non specific binding) to give a final concentration 80 nM); (B) binding buffer (for total binding); or (C) a test compound (final concentration 1 nM to 100 μM). The membrane suspension (50 μl), containing up to 8 μg of membrane protein, was added to each of (A), (B), or (C). Mixtures were shaken, and incubated at 4° C. for 16-18 hours, and then centrifuged at 4° C. for 25 min at 2,500×g. Alternatively, the incubation was conducted at 24° C. When incubated at 24° C., the IC50 concentrations are 2- to 10-fold higher than when the incubation is conducted at 4° C. This, must be kept in mind when comparing IC50 concentrations among compounds provided herein.
The supernatant, containing unbound radioactivity, was decanted and the pellet counted on a Genesys multiwell gamma counter. The degree of inhibition of binding (D) was calculated according to the following equation: [formula]
Each test was generally performed in triplicate.

[2] = biological target: T2, human ETB receptor (Homo sapiens, UniProt P24530); test: Binding Test #2: inhibition of 125I-endothelin-1 binding to ETB receptors (transfected COS7 cell membranes); conditions: incubation at 24° C.; generally the average of 2 to 3 experiments
T2 construct: expressed in transfected cells; host or cells: COS7 cells
T2 sequence (P24530 27-442): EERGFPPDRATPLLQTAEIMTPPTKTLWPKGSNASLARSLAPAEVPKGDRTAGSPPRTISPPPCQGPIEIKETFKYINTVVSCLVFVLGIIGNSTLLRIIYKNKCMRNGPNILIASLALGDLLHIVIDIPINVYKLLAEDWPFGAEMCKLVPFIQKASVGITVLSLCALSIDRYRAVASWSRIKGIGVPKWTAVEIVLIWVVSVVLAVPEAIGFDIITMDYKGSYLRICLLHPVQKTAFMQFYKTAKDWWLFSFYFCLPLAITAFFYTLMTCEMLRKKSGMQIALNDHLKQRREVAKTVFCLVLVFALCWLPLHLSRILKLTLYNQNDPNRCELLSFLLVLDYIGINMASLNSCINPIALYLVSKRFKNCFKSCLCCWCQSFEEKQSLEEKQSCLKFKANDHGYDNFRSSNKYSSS
Description: as §1
COS7 cells were transfected with DNA encoding the ETB receptor, The resulting cells, which express the human ETB receptor, were grown to confluence in T-150 flasks. Membrane was prepared as described above. The binding assay was performed as described above using the membrane preparation diluted with binding buffer to a concentration of 1 μg/50 μl.
Briefly, the COS7 cells, described above, that had been transfected with DNA encoding the ETB receptor and express the human ETB receptor on their surfaces were grown to confluence in T-175 flasks. Cells from multiple flasks were collected by scraping, pooled and centrifuged for 10 min at 190×g. The cells were resuspended in phosphate buffered saline (PBS) containing 10 mM EDTA using a Tenbroeck homogenizer. The suspension was centrifuged at 4° C. 57,800×g for 15 min, the pellet was resuspended in 5 ml of buffer A (5mM HEPES buffer, pH 7.4 containing aprotinin (100 KIU/ml)) and then frozen and thawed once. Five ml of Buffer B (5 mM HEPES Buffer, pH 7.4 containing 10 mM MnCl2 and 0.001% deoxyribonuclease Type 1) was added, the suspension mixed by inversion and then incubated at 37° C. for 30 minutes. The mixture was centrifuged at 57,800×g as described above, the pellet washed twice with buffer A and then resuspended in buffer C (30 mM HEPES buffer, pH 7.4 containing aprotinin (100 KIU/ml) to give a final protein concentration of 2 mg/ml.
The binding assay was performed as described above using the membrane preparation diluted to give 1 μg/50, μl of binding buffer.

[3] = test system: isolated vascular strips; conditions: read-out: EC50, contractile agent; cited from earlier work
[4] = test system: ETA receptor; conditions: cited from earlier work; for IC50: read-out: IC50, inhibition of 125I-labelled endothelin-1 binding
[5] = test system: ETB receptors; conditions: concentrations up to 100 μM; cited from earlier work

| Compound | IC50 [1] | IC50 [2] | also measured |
| --- | --- | --- | --- |
| Cc1noc(NS(=O)(=O)c2c(Cc3ccc4c(c3)OCO4)sc3ncccc23)c1Cl [N-(4-chloro-3-methyl-5-isoxazolyl)-2-[3,4-(methylenedioxy)benzyl]thieno [2,3-b]pyridine-3-sulfonamide] | 5.6 nM | 2800 nM | – |
| endothelin-1: potent twenty-one amino acid peptide vasoconstrictor | – | – | EC50 [3]: 0.4 nM; potency of inhibition of 125I-labelled endothelin-1 binding relative to endothelin-3 ([4]; cardiovascular tissues): forty to seven hundred times more potently than endothelin-3 |
| Cc1ccc(Cc2sc3ncccc3c2S(=O)(=O)Nc2onc(C)c2Cl)c(C)c1 [N-(4-chloro-3-methyl-5-isoxazolyl)-2-(2,4-dimethylbenzyl)thieno[2,3-b]pyridine-3-sulfonamide] | 4.5 nM | 1500 nM | – |
| Cc1cc2c(cc1Cc1sc3ncccc3c1S(=O)(=O)Nc1noc(C)c1Cl)OCO2 [N-(4-chloro-5-methyl-3-isoxazolyl)-2-[2-methyl-4,5-(methylenedioxy)-benzyl]thieno[2,3-b]pyridine-3-sulfonamide] | 1 nM | 500 nM | – |
| Cc1noc(NS(=O)(=O)c2c(Cc3cccc4ccccc34)sc3ncccc23)c1Cl [N-(4-chloro-3-methyl-5-isoxazolyl)-2-(1-naphthylmethyl)thieno[2,3-b]pyridine-3-sulfonamide] | 34 nM | 560 nM | – |
| Cc1noc(NS(=O)(=O)c2c(C(=O)c3ccc4c(c3)OCO4)sc3ncccc23)c1Cl [N-(4-chloro-3-methyl-5-isoxazolyl)-2-[3,4-(methylenedioxy)benzoyl]-thieno [2,3-b]pyridine-3-sulfonamide] | 960 nM | 31000 nM | – |
| Cc1noc(NS(=O)(=O)c2c(Cc3cc4c(cc3CCO)OCO4)sc3ncccc23)c1Cl [N-(4-chloro-3-methyl-5-isoxazolyl)-2-[2-(2-hydroxyethyl)-4,5-(methylenedioxy)benzyl]thieno[2,3-b]pyridine-3-sulfonamide] | 1.5 nM | 3600 nM | – |
| COc1cccc(OC)c1Cc1sc2ncccc2c1S(=O)(=O)Nc1onc(C)c1Cl [N-(4-chloro-3-methyl-5-isoxazolyl)-2-(2,6-dimethoxybenzyl)thieno[2,3-b]pyridine-3-sulfonamide] | 650 nM | 10100 nM | – |
| cyclo(D-Glu-L-Ala-allo-D-llc-L-Leu-D-Trp) [BE-18257B] | – | – | inhibition of binding to receptors in tissues in which ETB receptors predominate [5]: fails to inhibit binding; IC50 ([4]; aortic smooth muscle): 1400 nM; IC50 ([4]; cultured aortic smooth muscle cells): 500 nM; IC50 ([4]; ventricle membranes): 800 nM |

Second part, led by results:

| IC50 [1] | IC50 [2] | Compound | also measured |
| --- | --- | --- | --- |
| 68 nM | 39000 nM | CCc1sc2ncccc2c1S(=O)(=O)Nc1onc(C)c1Cl [N-(4-chloro-3-methyl-5-isoxazolyl)-2-ethylthieno[2,3-b]pyridine-3-sulfonamide] | – |
| 45 nM | 30000 nM | CCc1sc2ncccc2c1S(=O)(=O)Nc1noc(C)c1Cl [N-(4-chloro-5-methyl-3-isoxazolyl)-2-ethylthieno [2,3-b]pyridine-3-sulfonamide] | – |
| 45 nM | 6600 nM | Cc1noc(NS(=O)(=O)c2c(C(=O)CCc3ccc4c(c3)OCO4)sc3ncccc23)c1Cl [N-(4-chloro-3-methyl-5-isoxazolyl)-2-[3-(3,4-methylenedioxyphenyl)-proponyl]thieno [2,3-b]pyridine-3-sulfonamide] | – |
| 1.5 nM | 1600 nM | Cc1cc2c(cc1Cc1sc3ncccc3c1S(=O)(=O)Nc1onc(C)c1Cl)OCO2 [N-(4-chloro-3-methyl-5-isoxazolyl)-2-[2-methyl-4,5-(methylene-dioxy)benzyl]thieno [2,3-b]pyridine-3-sulfonamide] | – |
| 1800 nM | > 100000 nM | Cc1noc(NS(=O)(=O)c2csc3ncccc23)c1Cl [N-(4-chloro-3-methyl-5-isoxazolyl)thieno[2,3-b]pyridine-3-sulfonamide] | – |
